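Method: 48-hour compound exposure of cells in 96-well plates, five concentrations, linear interpolation of endpoints. GI50: concentration for 50% inhibition of growth. TGI: concentration producing complete growth inhibition.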
How the values were obtained:
Assay in all cases: growth of human tumour cells (NCI), 48 h
ACHN renal = test system: ACHN renal
IGROV1 ovarian = test system: IGROV1 ovarian
U251 CNS = test system: U251 CNS
K-562 leukemia = test system: K-562 leukemia
HT29 colon = test system: HT29 colon
NCI-H522 lung = test system: NCI-H522 lung
KM12 colon = test system: KM12 colon
T-47D breast = test system: T-47D breast
COLO 205 colon = test system: COLO 205 colon
SK-OV-3 ovarian = test system: SK-OV-3 ovarian
CCRF-CEM leukemia = test system: CCRF-CEM leukemia
SF-268 CNS = test system: SF-268 CNS
MDA-MB-435 = test system: MDA-MB-435
MDA-MB-231 breast = test system: MDA-MB-231 breast
MALME-3M melanoma = test system: MALME-3M melanoma
SNB-19 CNS = test system: SNB-19 CNS
DU-145 prostate = test system: DU-145 prostate
HOP-92 NSCLC = test system: HOP-92 NSCLC
OVCAR-5 ovarian = test system: OVCAR-5 ovarian
OVCAR-8 ovarian = test system: OVCAR-8 ovarian
RPMI-8226 leukemia = test system: RPMI-8226 leukemia
OVCAR-4 ovarian = test system: OVCAR-4 ovarian
LOX IMVI melanoma = test system: LOX IMVI melanoma
CAKI-1 renal = test system: CAKI-1 renal
UACC-257 melanoma = test system: UACC-257 melanoma
SW-620 colon = test system: SW-620 colon
PC-3 prostate = test system: PC-3 prostate
UACC-62 melanoma = test system: UACC-62 melanoma
TK-10 renal = test system: TK-10 renal
MOLT-4 leukemia = test system: MOLT-4 leukemia
MCF7 breast = test system: MCF7 breast
NCI-H23 lung = test system: NCI-H23 lung
SK-MEL-5 melanoma = test system: SK-MEL-5 melanoma
SK-MEL-2 melanoma = test system: SK-MEL-2 melanoma
HCC-2998 colon = test system: HCC-2998 colon
SK-MEL-28 melanoma = test system: SK-MEL-28 melanoma
NCI-H460 lung = test system: NCI-H460 lung
HOP-62 NSCLC = test system: HOP-62 NSCLC
786-0 renal = test system: 786-0 renal
RXF 393 renal = test system: RXF 393 renal
A549 NSCLC = test system: A549 NSCLC
M14 melanoma = test system: M14 melanoma
OVCAR-3 ovarian = test system: OVCAR-3 ovarian
SF-539 CNS = test system: SF-539 CNS
NCI-H226 lung = test system: NCI-H226 lung
SF-295 CNS = test system: SF-295 CNS
NCI/ADR-RES ovarian = test system: NCI/ADR-RES ovarian
HCT-116 colon = test system: HCT-116 colon
SN12C renal = test system: SN12C renal
SNB-75 CNS = test system: SNB-75 CNS
HS 578T breast = test system: HS 578T breast
EKVX NSCLC = test system: EKVX NSCLC
HL-60(TB) leukemia = test system: HL-60(TB) leukemia
HCT-15 colon = test system: HCT-15 colon
BT-549 breast = test system: BT-549 breast
SR leukemia = test system: SR leukemia
A498 renal = test system: A498 renal
UO-31 renal = test system: UO-31 renal

CCN(CC)CCOc1nc2ccc(OC)cc2c2c1-c1ccc(OC)cc1C2=O
GI50 (ACHN renal): 476 nM | TGI (ACHN renal): 1790 nM | GI50 (IGROV1 ovarian): 417 nM | TGI (IGROV1 ovarian): 1890 nM | GI50 (U251 CNS): 454 nM | TGI (U251 CNS): 1720 nM | GI50 (K-562 leukemia): 502 nM | TGI (K-562 leukemia): 2540 nM | GI50 (HT29 colon): 545 nM | TGI (HT29 colon): 1860 nM | GI50 (NCI-H522 lung): 394 nM | TGI (NCI-H522 lung): 1810 nM | GI50 (KM12 colon): 519 nM | TGI (KM12 colon): 1770 nM | GI50 (T-47D breast): 11000 nM | TGI (T-47D breast): 26300 nM | GI50 (COLO 205 colon): 546 nM | TGI (COLO 205 colon): 1930 nM | GI50 (SK-OV-3 ovarian): 2880 nM | TGI (SK-OV-3 ovarian): 14800 nM | GI50 (CCRF-CEM leukemia): 299 nM | TGI (CCRF-CEM leukemia): 3260 nM | GI50 (SF-268 CNS): 595 nM | TGI (SF-268 CNS): 2020 nM | GI50 (MDA-MB-435): 690 nM | TGI (MDA-MB-435): 2090 nM | GI50 (MDA-MB-231 breast): 1540 nM | TGI (MDA-MB-231 breast): 4100 nM | GI50 (MALME-3M melanoma): 1680 nM | TGI (MALME-3M melanoma): 3220 nM | GI50 (SNB-19 CNS): 922 nM | TGI (SNB-19 CNS): 3190 nM | GI50 (DU-145 prostate): 626 nM | TGI (DU-145 prostate): 1880 nM | GI50 (HOP-92 NSCLC): 786 nM | TGI (HOP-92 NSCLC): 5360 nM | GI50 (OVCAR-5 ovarian): 1870 nM | TGI (OVCAR-5 ovarian): 7200 nM | GI50 (OVCAR-8 ovarian): 526 nM | TGI (OVCAR-8 ovarian): 2260 nM | GI50 (RPMI-8226 leukemia): 601 nM | TGI (RPMI-8226 leukemia): 2240 nM | GI50 (OVCAR-4 ovarian): 1020 nM | TGI (OVCAR-4 ovarian): 3170 nM | GI50 (LOX IMVI melanoma): 513 nM | TGI (LOX IMVI melanoma): 1880 nM | GI50 (CAKI-1 renal): 1150 nM | TGI (CAKI-1 renal): 2880 nM | GI50 (UACC-257 melanoma): 1400 nM | TGI (UACC-257 melanoma): 3120 nM | GI50 (SW-620 colon): 253 nM | TGI (SW-620 colon): 1610 nM | GI50 (PC-3 prostate): 1300 nM | TGI (PC-3 prostate): 2910 nM | GI50 (UACC-62 melanoma): 2760 nM | TGI (UACC-62 melanoma): 7650 nM | GI50 (TK-10 renal): 1380 nM | TGI (TK-10 renal): 2950 nM | GI50 (MOLT-4 leukemia): 283 nM | TGI (MOLT-4 leukemia): 1850 nM | GI50 (MCF7 breast): 367 nM | TGI (MCF7 breast): 1530 nM | GI50 (NCI-H23 lung): 1250 nM | TGI (NCI-H23 lung): 3230 nM | GI50 (SK-MEL-5 melanoma): 1570 nM | TGI (SK-MEL-5 melanoma): 2940 nM | GI50 (SK-MEL-2 melanoma): 2240 nM | TGI (SK-MEL-2 melanoma): 4050 nM | GI50 (HCC-2998 colon): 1310 nM | TGI (HCC-2998 colon): 6680 nM | GI50 (SK-MEL-28 melanoma): 1810 nM | TGI (SK-MEL-28 melanoma): 3240 nM | GI50 (NCI-H460 lung): 371 nM | TGI (NCI-H460 lung): 1430 nM | GI50 (HOP-62 NSCLC): 1330 nM | TGI (HOP-62 NSCLC): 6190 nM | GI50 (786-0 renal): 1390 nM | TGI (786-0 renal): 3110 nM | GI50 (RXF 393 renal): 1210 nM | TGI (RXF 393 renal): 2550 nM | GI50 (A549 NSCLC): 387 nM | TGI (A549 NSCLC): 1590 nM | GI50 (M14 melanoma): 1420 nM | TGI (M14 melanoma): 3100 nM | GI50 (OVCAR-3 ovarian): 872 nM | TGI (OVCAR-3 ovarian): 2150 nM | GI50 (SF-539 CNS): 1240 nM | TGI (SF-539 CNS): 2950 nM | GI50 (NCI-H226 lung): 870 nM | TGI (NCI-H226 lung): 3060 nM | GI50 (SF-295 CNS): 519 nM | TGI (SF-295 CNS): 1740 nM | GI50 (NCI/ADR-RES ovarian): 848 nM | TGI (NCI/ADR-RES ovarian): 2850 nM | GI50 (HCT-116 colon): 368 nM | TGI (HCT-116 colon): 1640 nM | GI50 (SN12C renal): 531 nM | TGI (SN12C renal): 2060 nM | GI50 (SNB-75 CNS): 1360 nM | TGI (SNB-75 CNS): 5400 nM | GI50 (HS 578T breast): 1480 nM | TGI (HS 578T breast): 6930 nM | GI50 (EKVX NSCLC): 970 nM | TGI (EKVX NSCLC): 2810 nM | GI50 (HL-60(TB) leukemia): 1060 nM | TGI (HL-60(TB) leukemia): 3370 nM | GI50 (HCT-15 colon): 584 nM | TGI (HCT-15 colon): 2270 nM | GI50 (BT-549 breast): 5940 nM | TGI (BT-549 breast): 18000 nM | GI50 (SR leukemia): 344 nM | TGI (SR leukemia): 1690 nM | GI50 (A498 renal): 802 nM | TGI (A498 renal): 2170 nM | GI50 (UO-31 renal): 361 nM | TGI (UO-31 renal): 1850 nM
